Source: patent US11000033B2, “Ketone or oxime compound, and herbicide” (NISSAN CHEMICAL CORPORATION, priority 2014, dated 2021)

How the values were obtained:
Assay type in all cases: in vivo
Monochoria vaginalis [1] = assay: Test Example 1: herbicidal activity, application before weed generation in submerged conditions (symbol C); conditions: application herbicide amount 320 g/ha
Procedure, shortened: (§1)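 Weeds are sown into submerged alluvial soil alongside transplanted 2.5-leaf rice, and the compound, as an emulsion diluted to a set rate, is applied onto the water before emergence. Rating on the 0–5 herbicidal-ratio scale follows 3 weeks of greenhouse growth at 25–30 °C.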

Lolium multiflorum Lam. = assay: Test Example 4: herbicidal effect by soil treatment (symbol K)
Procedure, shortened: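 Seeds were sown in sterilized diluvial soil, covered with about 1.5 cm of soil, and the soil surface was sprayed with a water-diluted emulsion of the compound at a predetermined rate. Plants grew in a greenhouse at 25° C. to 30° C.; effects were scored visually 3 weeks after application.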

Veronica persica = assay: Test Example 5: herbicidal effect by foliage application, plastic box (symbol R); conditions: 320 g/ha, 3 weeks after application
Procedure, shortened: (§2)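 After sowing into sterilized diluvial soil and growing two weeks under glass at 25° C. to 30° C., seedlings receive a uniform foliar spray of diluted emulsion. Damage is judged visually three weeks on.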

Avena fatua = assay: Test Example 5: herbicidal effect by foliage application, plastic box (symbol I); conditions: 320 g/ha, 3 weeks after application
Procedure, shortened: as §2

wheat [2] = assay: Test Example 4: effect on crop by soil treatment (symbol e); conditions: for e: wheat, effect on crop grade: application herbicide amount 320 g/ha; for e: wheat, effect grade on crop: 320 g/ha
Procedure, shortened: (§3)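 Steps: fill box with sterilized diluvial soil; sow seed spot-like; cover with ~1.5 cm soil; grow in greenhouse (25° C. to 30° C.).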

beet = assay: Test Example 4: effect on crop by soil treatment (symbol f); conditions: for f: beet, effect on crop grade: application herbicide amount 320 g/ha; for f: beet, effect grade on crop: 320 g/ha
Procedure, shortened: as §3

[3] = test system: directly sowed rice plant; assay: Test Example 3: effect on crop by foliage application, Wagner pot (symbol b); conditions: application herbicide amount 320 g/ha
Procedure, shortened: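 Greenhouse culture at 25–30 °C of seeded rice, Cyperus difformis, Leptochloa chinensis and Echinochloa crus-galli var. crus-galli, in alluvial soil held under 0.1–0.5 cm of water in a Wagner pot.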

Scirpus juncoides = assay: Test Example 1: herbicidal activity, application before weed generation in submerged conditions (symbol B); conditions: application herbicide amount 320 g/ha
Procedure, shortened: as §1

Monochoria vaginalis [4] = assay: Test Example 2: herbicidal activity, application during weed generation in submerged conditions (symbol C); conditions: Table 23; application herbicide amount 320 g/ha; grade 0-5 by criteria of Test Example 1
Procedure, shortened: (§4)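 Visual herbicidal ratings, taken three weeks after dosing, reflect post-emergence water-surface application to seedlings at one to two leaves. Conditions: co-sown weeds in alluvial soil flooded to 4 cm, greenhouse held at 25° C. to 30° C.; compound given as water-diluted emulsion at a fixed herbicide amount.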

wheat [5] = assay: Test Example 5: effect on crop by foliage application, plastic box (symbol e); conditions: 320 g/ha, 3 weeks after application
Procedure, shortened: (§5)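 Soil: sterilized diluvial. Container: plastic box, 21 × 13 cm, 7 cm deep. Sowing: spot-like, ~1.5 cm cover. Growth: greenhouse, 25° C. to 30° C.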

soybean = assay: Test Example 4: effect on crop by soil treatment (symbol d); conditions: for d: soybean, effect on crop grade: application herbicide amount 320 g/ha; for d: soybean, effect grade on crop: 320 g/ha
Procedure, shortened: as §3

rapeseed = assay: Test Example 5: effect on crop by foliage application, plastic box (symbol g); conditions: 320 g/ha, 3 weeks after application
Procedure, shortened: as §5

[6] = test system: Echinochloa oryzacola Vasing.; assay: Test Example 2: herbicidal activity, application during weed generation in submerged conditions (symbol A); conditions: Table 23; application herbicide amount 320 g/ha; grade 0-5 by criteria of Test Example 1
Procedure, shortened: as §4

Amaranthus retroflexus = assay: Test Example 5: herbicidal effect by foliage application, plastic box (symbol N); conditions: 320 g/ha, 3 weeks after application
Procedure, shortened: as §2

[7] = application herbicide amount 320 g/ha

Row | Compound | Herbicidal effect grade, C: Monochoria vaginalis (Monochoria vaginalis [1]) | K: Lolium multiflorum Lam., herbicidal effect grade (Lolium multiflorum Lam.; [7]) | R: Veronica persica, herbicidal effect grade (Veronica persica) | I: Avena fatua, herbicidal effect grade (Avena fatua) | e: wheat, effect on crop grade (wheat [2]) | f: beet, effect on crop grade (beet) | effect on crop b (directly sowed rice plant), grade 0-5 [3] | Herbicidal effect grade, B: Scirpus juncoides (Scirpus juncoides) | Herbicidal effect grade, C: Monochoria vaginalis (Monochoria vaginalis [4]) | e: wheat, effect on crop grade (wheat [5]) | d: soybean, effect on crop grade (soybean) | g: rapeseed, effect on crop grade (rapeseed) | Herbicidal effect grade, A: Echinochloa oryzacola Vasing. [6] | N: Amaranthus retroflexus, herbicidal effect grade (Amaranthus retroflexus) | K: Lolium multiflorum Lam., herbicidal effect grade (Lolium multiflorum Lam.; 320 g/ha) | R: Veronica persica, herbicidal effect (criteria 0-5) (Veronica persica) | I: Avena fatua, herbicidal effect (criteria 0-5) (Avena fatua) | e: wheat, effect grade on crop (wheat [2]) | f: beet, effect grade on crop (beet) | d: soybean, effect grade on crop (soybean) | other results
1 | COC(=O)C(C(=O)C1CC1)C1CC(O)=C(c2c(C)cc(C)cc2C)C1=O (stereo not drawn) [2-014] | 1 (Herbicidal ratio of 5% or higher and lower than 20%) | 4 (Herbicidal ratio of 70% or higher and lower than 90%) | 3 (Herbicidal ratio of 40% or higher and lower than 70%) | 4 (Herbicidal ratio of 70% or higher and lower than 90%) | 0 (Herbicidal ratio of 5% or lower (almost no effect)) | 0 (Herbicidal ratio of 5% or lower (almost no effect)) | 5 (Herbicidal ratio of 90% or more (almost completely withered)) | 3 (Herbicidal ratio of 40% or higher and lower than 70%) | 0 (Herbicidal ratio of 5% or lower (almost no effect)) | 0 (Herbicidal ratio of 5% or lower (almost no effect)) | 0 (Herbicidal ratio of 5% or lower (almost no effect)) | 4 (Herbicidal ratio of 70% or higher and lower than 90%) | 4 (Herbicidal ratio of 70% or higher and lower than 90%) | 0 (Herbicidal ratio of 5% or lower (almost no effect)) | – | – | – | – | – | – | –
2 | CCc1cc(Br)cc(C)c1C1=C(O)CC(CC(C)=NOC)C1=O (stereo not drawn) [6-001] | 0 (Herbicidal ratio of 5% or lower (almost no effect)) | 5 (Herbicidal ratio of 90% or more (almost completely withered)) | 0 (Herbicidal ratio of 5% or lower (almost no effect)) | 5 (Herbicidal ratio of 90% or more (almost completely withered)) | 5 (Herbicidal ratio of 90% or more (almost completely withered)) | 0 (Herbicidal ratio of 5% or lower (almost no effect)) | 5 (Herbicidal ratio of 90% or more (almost completely withered)) | 0 (Herbicidal ratio of 5% or lower (almost no effect)) | 0 (Herbicidal ratio of 5% or lower (almost no effect)) | 5 (Herbicidal ratio of 90% or more (almost completely withered)) | 0 (Herbicidal ratio of 5% or lower (almost no effect)) | 2 (Herbicidal ratio of 20% or higher and lower than 40%) | 4 (Herbicidal ratio of 70% or higher and lower than 90%) | 0 (Herbicidal ratio of 5% or lower (almost no effect)) | – | – | – | – | – | – | –
3 | CON=C(C)CC1CC(O)=C(c2c(C)cc(-c3cccc(Cl)c3)cc2C)C1=O (mixture of isomers) [6-034] | 4 (Herbicidal ratio of 70% or higher and lower than 90%) | 5 (Herbicidal ratio of 90% or more (almost completely withered)) | 3 (Herbicidal ratio of 40% or higher and lower than 70%) | 5 (Herbicidal ratio of 90% or more (almost completely withered)) | 0 (Herbicidal ratio of 5% or lower (almost no effect)) | 0 (Herbicidal ratio of 5% or lower (almost no effect)) | 5 (Herbicidal ratio of 90% or more (almost completely withered)) | 5 (Herbicidal ratio of 90% or more (almost completely withered)) | 3 (Herbicidal ratio of 40% or higher and lower than 70%) | 0 (Herbicidal ratio of 5% or lower (almost no effect)) | 0 (Herbicidal ratio of 5% or lower (almost no effect)) | 4 (Herbicidal ratio of 70% or higher and lower than 90%) | 5 (Herbicidal ratio of 90% or more (almost completely withered)) | 3 (Herbicidal ratio of 40% or higher and lower than 70%) | – | – | – | – | – | – | –
4 | CON=C(C)CC1CC(OC(=O)N2CCCCC2)=C(c2c(C)cc(C)cc2C)C1=O (stereo not drawn) [1-151] | 0 (Herbicidal ratio of 5% or lower (almost no effect)) | – | – | – | – | – | 5 (Herbicidal ratio of 90% or more (almost completely withered)) | 3 (Herbicidal ratio of 40% or higher and lower than 70%) | 2 (Herbicidal ratio of 20% or higher and lower than 40%) | – | – | – | 5 (Herbicidal ratio of 90% or more (almost completely withered)) | – | 5 (Herbicidal ratio of 90% or more (almost completely withered)) | 1 (Herbicidal ratio of 5% or higher and lower than 20%) | 5 (Herbicidal ratio of 90% or more (almost completely withered)) | 0 (Herbicidal ratio of 5% or lower (almost no effect)) | 0 (Herbicidal ratio of 5% or lower (almost no effect)) | 0 (Herbicidal ratio of 5% or lower (almost no effect)) | e: wheat, effect on crop (criteria 0-5) (wheat [5]): 3 (Herbicidal ratio of 40% or higher and lower than 70%); g: rapeseed, effect on crop (criteria 0-5) (rapeseed): 4 (Herbicidal ratio of 70% or higher and lower than 90%); N: Amaranthus retroflexus, herbicidal effect (criteria 0-5) (Amaranthus retroflexus): 0 (Herbicidal ratio of 5% or lower (almost no effect))
5 | CON=C(C)CC1CC(OC(=O)c2ccc(S(C)(=O)=O)c(C(=O)OC)c2Cl)=C(c2c(C)cc(C)cc2C)C1=O (stereo not drawn) [1-162] | 3 (Herbicidal ratio of 40% or higher and lower than 70%) | – | 3 (Herbicidal ratio of 40% or higher and lower than 70%) | 5 (Herbicidal ratio of 90% or more (almost completely withered)) | – | – | 5 (Herbicidal ratio of 90% or more (almost completely withered)) | 4 (Herbicidal ratio of 70% or higher and lower than 90%) | 2 (Herbicidal ratio of 20% or higher and lower than 40%) | 5 (Herbicidal ratio of 90% or more (almost completely withered)) | – | 4 (Herbicidal ratio of 70% or higher and lower than 90%) | 5 (Herbicidal ratio of 90% or more (almost completely withered)) | 1 (Herbicidal ratio of 5% or higher and lower than 20%) | 5 (Herbicidal ratio of 90% or more (almost completely withered)) | – | – | 4 (Herbicidal ratio of 70% or higher and lower than 90%) | 0 (Herbicidal ratio of 5% or lower (almost no effect)) | 0 (Herbicidal ratio of 5% or lower (almost no effect)) | –
6 | CON=C(C)CC1CC(OC(=O)c2ccccc2C(F)(F)F)=C(c2c(C)cc(C)cc2C)C1=O (stereo not drawn) [1-154] | 2 (Herbicidal ratio of 20% or higher and lower than 40%) | – | – | – | – | – | 5 (Herbicidal ratio of 90% or more (almost completely withered)) | 4 (Herbicidal ratio of 70% or higher and lower than 90%) | 4 (Herbicidal ratio of 70% or higher and lower than 90%) | – | – | – | 5 (Herbicidal ratio of 90% or more (almost completely withered)) | – | 5 (Herbicidal ratio of 90% or more (almost completely withered)) | 3 (Herbicidal ratio of 40% or higher and lower than 70%) | 5 (Herbicidal ratio of 90% or more (almost completely withered)) | 3 (Herbicidal ratio of 40% or higher and lower than 70%) | 0 (Herbicidal ratio of 5% or lower (almost no effect)) | 0 (Herbicidal ratio of 5% or lower (almost no effect)) | e: wheat, effect on crop (criteria 0-5) (wheat [5]): 5 (Herbicidal ratio of 90% or more (almost completely withered)); g: rapeseed, effect on crop (criteria 0-5) (rapeseed): 4 (Herbicidal ratio of 70% or higher and lower than 90%); N: Amaranthus retroflexus, herbicidal effect (criteria 0-5) (Amaranthus retroflexus): 3 (Herbicidal ratio of 40% or higher and lower than 70%)
